Where two headings read alike, the source gives them in different places.
Key:
Vero cells = assay: Cytotoxicity assay on uninfected cells
[1] = Cytotoxicity assay on uninfected cells; settings: African green monkey
MAYV [2] = assay type: cell-based, Mayaro virus (MAYV) strain TC625; settings: for decrease in relative infectivity (ratio infectious virus vs. viral RNA): supernatant
MAYV [3] = assay: Antiviral CPE reduction assay; assay type: cell-based, Mayaro virus (MAYV) strain TC625; settings: for Activity against MAYV (inhibition of MAYV-induced CPE): MOI 0.01
MAYV [4] = settings: virus yield assay, cited from earlier work
CHIKV = settings: against CHIKV; cited from earlier work
in vitro = settings: African green monkey
MAYV [5] = assay: Delay of treatment assay; assay type: cell-based, Mayaro virus (MAYV) strain TC625; settings: for reduction of intracellular RNA by time of addition: EIDD-1931 25 µM, favipiravir 300 µM, suramin 500 µM, qRT-PCR

Compound	CC50 at 3 days [1] [µM]	EC50 (MAYV [3]; Mayaro virus, Vero, 72 h) [µM]	Activity against MAYV (inhibition of MAYV-induced CPE) (MAYV [3]; Vero cells)	decrease in infectious virus (MAYV [2])	reduction in viral RNA and infectious virus content with increasing concentrations (MAYV [2])	reduction of intracellular RNA by time of addition (MAYV [5]; […], 10 h pi)	also measured
NC(=O)c1ncn([C@@H]2O[C@H](CO)[C@@H](O)[C@H]2O)n1 [Ribavirin, 1-(β-D-ribofuranosyl)-1H-1,2,4-triazole-3-carboxamide]	250 ± 81	> 200	not active against MAYV	–	–	–	signs of toxicity determined microscopically (Vero cells; concentrations higher than 200 µM): signs of toxicity were determined microscopically at higher concentrations; blocking MAYV infectivity (MAYV [2]): not effective; EC50 (MAYV [4]; strain TR4675, MOI 0.05): 62.5 µM; EC50 (MAYV [4]; strain TR4675, MOI 0.1): 255 µM
C[C@@]1(O)[C@H](O)[C@@H](CO)O[C@H]1n1ccc2c(N)ncnc21 [7DMA, 7-Deaza-2′-C-methyladenosine]	> 600	> 60	not able to inhibit MAYV	–	–	–	–
Nc1ncnc2c([C@@H]3N[C@H](CO)[C@@H](O)[C@H]3O)c[nH]c12 [Galidesivir]	238 ± 36	> 100	not able to inhibit MAYV	–	–	–	–
CCN(CC)CCCC(C)Nc1ccnc2cc(Cl)ccc12 (centres unmarked) [Chloroquine]	–	> 200	did not show activity against MAYV	–	–	–	EC50 (CHIKV): ~10 µM
Cc1ccc(C(=O)Nc2ccc(S(=O)(=O)O)c3cc(S(=O)(=O)O)cc(S(=O)(=O)O)c23)cc1NC(=O)c1cccc(NC(=O)Nc2cccc(C(=O)Nc3cc(C(=O)Nc4ccc(S(=O)(=O)O)c5cc(S(=O)(=O)O)cc(S(=O)(=O)O)c45)ccc3C)c2)c1 [Suramin]	–	124 ± 26	–	~ 5 log10	dose-dependent reduction	only when added at early time points (2 h prior to infection and 0 h pi)	CC50 at 3 days (in vitro): > 2000 µM; relative infectivity of MAYV (MAYV [2]; all concentrations with the exception of the highest tested (500 µM)): not affected; decrease of infectious virus titers (MAYV [5]): ~ −2 log10
CCC(CC)COC(=O)[C@H](C)N[P@](=O)(OC[C@H]1O[C@@](C#N)(c2ccc3c(N)ncnn23)[C@H](O)[C@@H]1O)Oc1ccccc1 [Remdesivir]	–	> 100	not able to inhibit MAYV	–	–	–	CC50 at 3 days (in vitro): 297 ± 101 µM
CCOC(=O)c1c(CSc2ccccc2)n(C)c2cc(Br)c(O)c(CN(C)C)c12 [Arbidol]	> 100	> 60	did not show activity against MAYV	–	–	–	EC50 (CHIKV): 12 µM
O=c1nc(NO)ccn1[C@@H]1O[C@H](CO)[C@@H](O)[C@H]1O [EIDD-1931, β-D-N^4-hydroxycytidine]	–	–	–	~ 8 log10	dose-dependent reduction	still resulted in a reduction when added until 2 h pi	CC50 (Vero cells; uninfected Vero cells, day 3, microscopically or MTS/PMS): > 100 µM; inhibitory effect in virus yield assay (MAYV [2]; 3.1 µM): inhibitory effect was still observed; decrease in relative infectivity (ratio infectious virus vs. viral RNA) (MAYV [2]; starting from 6 µM): ~ 1000 fold; EC50 (MAYV [3]; Vero cells, MAYV MOI 0.01, day 3 pi, MTS/PMS read-out): 1.6 ± 0.5 µM; activity on infectious virus (MAYV [5]; 25 µM, added at 6 h pi): modest activity; decrease in infectious virus (MAYV [5]; 25 µM, added until 4 h pi, […], 10 h pi): 2–3 log10
NC(=O)c1nc(F)c[nH]c1=O [Favipiravir]	2840 ± 86	79 ± 4	–	~ 8 log10	dose-dependent reduction	only when added at early time points (2 h prior to infection and 0 h pi)	inhibitory effect in virus yield assay (MAYV [2]; 75 µM): inhibitory effect was still observed; decrease in relative infectivity (ratio infectious virus vs. viral RNA) (MAYV [2]; starting from 75 µM): ~ 100 fold; reduction of viral titers (MAYV [5]; 300 µM, added until 2 h pi, […], 10 h pi): 2–3 log10
C[C@@]1(O)[C@H](O)[C@@H](CO)O[C@H]1n1ccc(N)nc1=O [2’CMC, 2′-C-methylcytidine]	167 ± 7	> 20	not able to inhibit MAYV	–	–	–	–

Source: paper PMC8065421, “Repurposing Drugs for Mayaro Virus: Identification of EIDD-1931, Favipiravir and Suramin as Mayaro Virus Inhibitors” (Microorganisms, 2021)
